Source: PubChem BioAssay (NCI)
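How tested: cells in 96-well plates exposed to compound for 48 hours at five concentrations. Here, GI50 denotes the concentration required for 50% inhibition of growth. TGI is the concentration that stops growth completely.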

Experiments:
Test in all cases: NCI anticancer screen, dose series, 48 h
SK-MEL-5 melanoma = test system: SK-MEL-5 melanoma
SF-268 CNS = test system: SF-268 CNS
ACHN renal = test system: ACHN renal
IGROV1 ovarian = test system: IGROV1 ovarian
SNB-75 CNS = test system: SNB-75 CNS
MALME-3M melanoma = test system: MALME-3M melanoma
SF-295 CNS = test system: SF-295 CNS
NCI-H522 lung = test system: NCI-H522 lung

SMILES	GI50 (SK-MEL-5 melanoma) [µM]	TGI (SK-MEL-5 melanoma) [µM]	GI50 (SF-268 CNS) [µM]	TGI (SF-268 CNS) [µM]	GI50 (ACHN renal) [µM]	TGI (ACHN renal) [µM]	GI50 (IGROV1 ovarian) [µM]	TGI (IGROV1 ovarian) [µM]	GI50 (SNB-75 CNS) [µM]	TGI (SNB-75 CNS) [µM]	GI50 (MALME-3M melanoma) [µM]	TGI (MALME-3M melanoma) [µM]	GI50 (SF-295 CNS) [µM]	TGI (SF-295 CNS) [µM]	GI50 (NCI-H522 lung) [µM]	TGI (NCI-H522 lung) [µM]
CCN(CC)c1ccc2nc3c4ccccc4c(=O)cc-3n(-c3ccccc3)c2c1	0.444	1.74	2.85	12.9	2.13	14.9	0.62	2.92	2.34	12.7	1.4	3.56	1.29	3.28	–	–
Cc1c(-c2ccc(O)cc2)oc(=O)c2ccc(O)cc12	33.3	> 100	55.4	> 100	> 100	> 100	35.7	> 100	–	–	32.7	> 100	32.8	> 100	87.6	> 100
O=c1ccc(=O)n(-c2ccccc2)[nH]1	–	> 100	–	> 100	–	> 100	–	> 100	–	> 100	–	> 100	–	> 100	–	> 100
COc1cccc(C2=C(c3cn(C)c4cc(F)ccc34)C(=O)NC2=O)c1	11	> 21	> 22.2	> 25	10.5	> 25	> 25	> 25	2.42	> 25	> 18	> 25	> 18.3	> 25	> 15.9	> 25
NC1=NC(=O)/C(=C/c2ccc3ncccc3c2)S1	> 25	> 25	> 25	> 25	> 25	> 25	> 25	> 25	> 25	> 25	> 25	> 25	> 25	> 25	> 18.4	> 25
C=C1C(=O)O[C@H]2[C@H]1CC/C(Cn1cc(-c3cccc(Cl)c3)nn1)=C\CC[C@@]1(C)O[C@@H]21	1.7	3.08	1.59	3.46	0.184	0.355	0.73	2.41	1.16	2.39	1.2	2.92	3.41	13	0.291	1.09
CCOC(=O)c1c(NC(=O)c2ccccc2)sc2c3c(ccc12)OCN(C)C3	1.74	3.14	1.77	3.59	1.58	2.98	1.64	3.18	1.4	2.74	1.78	3.43	1.74	3.23	1.66	3.62
COC(=O)C1(C)CC2C(C)(CCC3(C)C4=CC=C5C(=CC(=O)C(O)=C5C)C4(C)CCC23C)CC1O (stereo unspecified)	–	3.28	–	2.63	–	1.53	–	1.18	–	3.54	–	2.24	–	3.43	–	0.54
O=C(O)c1c(Cl)c(Cl)c(Cl)c(Cl)c1C(=O)Nc1ccc2cn[nH]c2c1	–	> 100	–	> 100	–	> 100	–	> 100	–	> 100	–	> 100	–	> 100	–	> 100
CCCCCCCCCC(CCCC(O)CC(=O)O)OC1OC(COC2OC(C)C(OC(C)=O)C(O)C2O)C(O)C(O)C1OC1OC(CO)C(O)C(O)C1OC1OC(C)C(OC(=O)CC(C)C)C(O)C1O (stereo unspecified)	> 35	> 35	> 35	> 35	> 35	> 35	> 35	> 35	> 35	> 35	> 35	> 35	> 35	> 35	> 35	> 35
C[C@H](CS)C(=O)N1c2ccccc2C[C@H]1C(=O)O	–	> 100	–	> 100	–	> 100	–	> 100	–	> 100	–	–	–	> 100	–	> 100
ClCc1ccc(Cn2cnc3c(Cl)ncnc32)cc1	11.7	35.9	6.03	16.5	4.04	11.5	13.6	42	> 42	> 67	–	–	5.71	19.2	11.5	75.7
NC(Cc1c[nH]c2ccc(F)cc12)C(=O)O (stereo unspecified)	375	711	677	> 2500	738	> 2500	–	–	489	1390	490	1130	609	1500	1460	> 2500
O=C(CCl)Nc1cc(Cl)c(Cl)cc1Cl	–	3.17	–	4.62	–	4.58	–	3.3	–	–	–	2.88	–	> 10	–	2.02
Cc1ccc(-c2nc(N3CCNCC3)c3oc(-c4ccccc4)nc3n2)cc1	–	–	2.07	5.07	1.75	3.12	1.87	3.64	1.62	3.02	2.07	3.75	1.69	3.16	1.64	3.43
COc1ccc(Cn2cc3c(c2)-c2oncc2CC3)cc1OC	0.229	1.7	0.43	> 50	0.325	> 50	0.391	> 46.3	0.123	0.761	–	–	0.15	1.71	0.146	0.677
C/C(=N\n1c(O)c(C#N)cc(C#N)c1=O)c1ccncc1	> 100	> 100	> 100	> 100	> 100	> 100	> 100	> 100	–	–	> 100	> 100	> 100	> 100	> 100	> 100
